US8716242B2, “β-hairpin peptidomimetics” (priority 2009, dated 2014)
Read-outs that look alike come from different tables or passages of the source. Numbered stars: 1 amine (or outer) side, 2 acyl side, 3 side chain; on linkers, the order of the positions; unused ones are H or OH. Bridge positions count the residues as written; N and C are the ends. Square brackets hold non-standard residues; d marks the D form. Side chains are listed from the residue outwards. Peptide text beside a SMILES is read from it. * marks the point of attachment. Cholyl = C[C@H](CCC(=O)*)[C@H]1CC[C@H]2[C@@H]3[C@H](O)C[C@@H]4C[C@H](O)CC[C@]4(C)[C@H]3C[C@H](O)[C@]12C; Benzoyl(4-dodecyloxy) = CCCCCCCCCCCCOc1ccc(C(=O)*)cc1; Benzoyl(4-octyloxy) = CCCCCCCCOc1ccc(C(=O)*)cc1; γGlu = O=C(O)[C@H](CCC(=O)[*:2])N[*:1]; Octyloxycarbonyl = CCCCCCCCOC(=O)*; Stearoyl = CCCCCCCCCCCCCCCCCC(=O)*; Lauroyl = CCCCCCCCCCCC(=O)*; Dab = NCC[C@H](N)C(=O)O

Assays:
[1] = tested on: intracranial glioblastoma and medulloblastoma xenografts; conditions: systemic administration; cited from earlier work
human CXCR4 = target: T1, human CXCR4 (Homo sapiens, UniProt P61073); test: Ca2+-assay: CXCR4-antagonizing activity (SDF-1 induced calcium mobilization); format: cell-based
T1 construct: expressed in transfected cells; host or cells: mouse pre-B cell line 300-19
Outline: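 Mouse pre-B 300-19 cells stably expressing human CXCR4, loaded with Calcium 4 dye in HBSS/20 mM HEPES pH 7.4/0.1% BSA for 1 h at RT. Peptides added before SDF-1; fluorescence (ex 485/em 525 nm) followed for 90 s. IC50 from four-parameter logistic fit of % maximal SDF-1 response.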

[2] = Cytotoxicity, MTT reduction assay, HELA cells; format: cell-based; conditions: human, HELA cells (Acc57), 12.5-50 μM
Outline: (§1)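 HELA (4000/well) and COS-7 (3400/well) cells were grown 24 h, then exposed 48 h at 37° C to peptides at 12.5, 25 and 50 μM in triplicate. MTT reduction read at 595 nm; growth % relative to time-zero, and GI50 interpolated by trend line.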

[3] = Cytotoxicity, MTT reduction assay, COS-7 cells; format: cell-based; conditions: African green monkey, COS-7 cells (CRL-1651), 12.5-50 μM
Outline: as §1

[4] = tested on: human red blood cells (hRBC); test: Hemolysis of human red blood cells; format: cell-based; conditions: 20% hRBC, 1 h, 37° C.
Outline: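 Washed fresh human erythrocytes (20% v/v, ~0.9×10^9 cells/mL final) incubated with compound at 100 μM for 1 h at 37 °C with shaking. Supernatant OD540 read; % hemolysis expressed relative to 2.5% Triton X-100 lysis (100%), with PBS/0.001% acetic acid as 0%.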

[5] = Plasma stability in human plasma; format: in vitro ADME; conditions: human plasma, 37° C.; for remaining at 24 h, 10 μM: 1440 min, read-out: human pl. cpd left at 1440 min
Outline: (§2)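 Peptides (1 mM DMSO/H2O stock) were spiked into human or mouse plasma in triplicate and incubated at 37 °C, sampling from 0 to 1440 min. Samples were quenched in formic acid/acetonitrile and analysed by LC/MS MRM. Remaining percent of t=0 was calculated and T1/2 derived by trend fitting.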

[6] = Plasma stability in mouse plasma; format: in vitro ADME; conditions: mouse plasma, 37° C.; for remaining at 24 h, 10 μM: 1440 min, read-out: mouse pl. cpd left at 1440 min
Outline: as §2

[7] = mouse pre-B cell line 300-19 transfected with human CXCR4, SDF-1 induced Ca2+ mobilization, read-out: IC50% [nM] ± SD, CXCR4 receptor

T1 sequence (P61073 whole entry): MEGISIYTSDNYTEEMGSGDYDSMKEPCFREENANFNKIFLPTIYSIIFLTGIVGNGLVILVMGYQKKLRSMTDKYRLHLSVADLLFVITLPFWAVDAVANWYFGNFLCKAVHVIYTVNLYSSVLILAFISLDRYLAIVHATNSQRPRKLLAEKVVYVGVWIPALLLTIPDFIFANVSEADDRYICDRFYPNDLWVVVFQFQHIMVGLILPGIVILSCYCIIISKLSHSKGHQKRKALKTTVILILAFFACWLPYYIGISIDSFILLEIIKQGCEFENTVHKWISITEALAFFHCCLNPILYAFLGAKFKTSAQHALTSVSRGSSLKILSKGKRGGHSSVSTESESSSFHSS

Row | Compound | growth of intracranial glioblastoma and medulloblastoma xenografts [1] | IC50 (human CXCR4; [7]) [nM] | GI50 at 48 h [2] [µM] | GI50 at 48 h [3] [µM] | Hemolysis at 100 μM [4] [%] | remaining at 24 h, 10 μM [5] [%] | human pl. T1/2 ([5]; up to 1440 min) [h] | remaining at 24 h, 10 μM [6] [%] | mouse pl. T1/2 ([6]; up to 1440 min) [h] | IC50 (human CXCR4) [nM] | half-life at 10 μM ([5]; up to 1440 min, read-out: human pl. T1/2) [h] | half-life at 10 μM ([6]; up to 1440 min, read-out: mouse pl. T1/2) [h]
1 | c1cc(CN2CCCNCCNCCCNCC2)ccc1CN1CCCNCCNCCCNCC1 [AMD3100] | inhibits growth | – | – | – | – | – | – | – | – | – | – | –
2 | CCCCCCCCCCCCCCCCCC(=O)NCCCC[C@@H]1NC(=O)[C@H](Cc2ccc(O)cc2)NC(=O)[C@@H]2CSSC[C@H](NC(=O)[C@H](Cc3ccc(O)cc3)NC(=O)[C@H](Cc3c[nH]cn3)NC(=O)[C@H](Cc3ccc(O)cc3)NC(=O)[C@@H]3CCCN3C(=O)[C@H]3CCCN3C(=O)[C@H](CCCCN)NC1=O)C(=O)N[C@@H](CO)C(=O)N[C@@H](C)C(=O)N1CCC[C@@H]1C(=O)N[C@@H](CCN)C(=O)N[C@@H](CCCNC(=N)N)C(=O)N[C@@H](Cc1ccc(O)cc1)C(=O)N2 [Ex. 22] (cyclo(YHYCSA[dP][Dab]RYCYK(Stearoyl)K[dP]P); disulfide 4-11) | – | 7.3 ± 3 | > 35 | > 50 | 9.6 | 72 | 24 | 82 | 24 | – | – | –
3 | CCCCCCCCOc1ccc(C(=O)NCCCC[C@@H]2NC(=O)[C@H](Cc3ccc(O)cc3)NC(=O)[C@@H]3CSSC[C@H](NC(=O)[C@H](C)NC(=O)[C@H](Cc4c[nH]cn4)NC(=O)[C@H](Cc4ccc(O)cc4)NC(=O)[C@@H]4CCCN4C(=O)[C@H]4CCCN4C(=O)[C@H](CCCCN)NC2=O)C(=O)N[C@@H](CCCNC(=N)N)C(=O)N[C@@H](C)C(=O)N2CCC[C@@H]2C(=O)N[C@@H](CCN)C(=O)N[C@@H](CCCNC(=N)N)C(=O)N[C@@H](Cc2ccc(O)cc2)C(=O)N3)cc1 [Ex. 23] (cyclo(YHACRA[dP][Dab]RYCYK(Benzoyl(4-octyloxy))K[dP]P); disulfide 4-11) | – | – | > 22 | > 50 | 7.8 | 100 | 24 | 74 | 24 | 8.3 ± 3.2 | – | –
4 | CCCCCCCCCCCCOc1ccc(C(=O)NCCCC[C@@H]2NC(=O)[C@H](Cc3ccc(O)cc3)NC(=O)[C@@H]3CSSC[C@H](NC(=O)[C@H](Cc4ccc(O)cc4)NC(=O)[C@H](Cc4c[nH]cn4)NC(=O)[C@H](Cc4ccc(O)cc4)NC(=O)[C@@H]4CCCN4C(=O)[C@H]4CCCN4C(=O)[C@H](CCCCN)NC2=O)C(=O)N[C@@H](CO)C(=O)N[C@@H](C)C(=O)N2CCC[C@@H]2C(=O)N[C@@H](CCN)C(=O)N[C@@H](CCCNC(=N)N)C(=O)N[C@@H](Cc2ccc(O)cc2)C(=O)N3)cc1 [Ex. 24] (cyclo(YHYCSA[dP][Dab]RYCYK(Benzoyl(4-dodecyloxy))K[dP]P); disulfide 4-11) | – | – | > 29 | > 50 | 10.9 | 24 | – | 22 | – | 6.1 ± 4.5 | 2.12 | 9.27
5 | C[C@H](CCC(=O)NCC(=O)NCCCC[C@@H]1NC(=O)[C@H](CCC(N)=O)NC(=O)[C@H](Cc2ccc(O)cc2)NC(=O)[C@@H]2CSSC[C@H](NC(=O)[C@H]([C@@H](C)O)NC(=O)[C@H](Cc3c[nH]cn3)NC(=O)[C@H](Cc3ccc(O)cc3)NC(=O)[C@@H]3CCCN3C(=O)[C@H]3CCCN3C1=O)C(=O)N[C@@H](CCCNC(=N)N)C(=O)NCC(=O)N1CCC[C@@H]1C(=O)N[C@@H](CCN)C(=O)N[C@@H](CCCNC(=N)N)C(=O)N[C@@H](Cc1ccc(O)cc1)C(=O)N2)[C@H]1CC[C@H]2[C@@H]3[C@H](O)C[C@@H]4C[C@H](O)CC[C@]4(C)[C@H]3C[C@H](O)[C@]12C [Ex. 34] (cyclo(YHTCRG[dP][Dab]RYCYQK([Gly-Cholyl])[dP]P); disulfide 4-11) | – | – | > 45 | > 50 | 0.6 | 100 | 24 | 87 | 24 | 7.2 ± 0.3 | – | –
6 | CCCCCCCCOC(=O)NC(=N)NCCC[C@@H]1NC(=O)[C@H](CCN)NC(=O)[C@H]2CCCN2C(=O)[C@H](C)NC(=O)[C@H](CO)NC(=O)[C@@H]2CSSC[C@H](NC(=O)[C@H](Cc3ccc(O)cc3)NC1=O)C(=O)N[C@@H](Cc1ccc(O)cc1)C(=O)N[C@@H](CCC(N)=O)C(=O)N[C@@H](CCCCN)C(=O)N1CCC[C@@H]1C(=O)N1CCC[C@H]1C(=O)N[C@@H](Cc1ccc(O)cc1)C(=O)N[C@@H](Cc1c[nH]cn1)C(=O)N[C@@H](Cc1ccc(O)cc1)C(=O)N2 [compound 6] (cyclo(YHYCSA[dP][Dab]R(Octyloxycarbonyl)YCYQK[dP]P); disulfide 4-11) | – | 28.5 ± 9 | > 10 | > 35 | 0.7 | 76 | 24 | 92 | 24 | – | – | –
7 | CCCCCCCCCCCC(=O)N[C@@H](CCC(=O)NCCCC[C@@H]1NC(=O)[C@H](Cc2ccc(O)cc2)NC(=O)[C@@H]2CSSC[C@H](NC(=O)[C@H](C)NC(=O)[C@H](Cc3c[nH]cn3)NC(=O)[C@H](Cc3ccc(O)cc3)NC(=O)[C@@H]3CCCN3C(=O)[C@H]3CCCN3C(=O)[C@H](CCCCN)NC1=O)C(=O)N[C@@H](CCCNC(=N)N)C(=O)NCC(=O)N1CCC[C@@H]1C(=O)N[C@@H](CCN)C(=O)N[C@@H](CCCNC(=N)N)C(=O)N[C@@H](Cc1ccc(O)cc1)C(=O)N2)C(=O)O [compound 27] (cyclo(YHACRG[dP][Dab]RYCYK([γGlu-Lauroyl])K[dP]P); disulfide 4-11) | – | 2.6 ± 0.7 | > 48 | > 50 | 1.6 | 75 | 24 | 22 | 24 | – | – | –
